Assay results: ChEMBL document CHEMBL1153647, “Inhibitors of human leukocyte elastase. 3.1 inhibition by tetrahydrobenzisothiazolinylmethyl aryl carboxylates” (Bioorg Med Chem Lett, 1995)

Columns and labels:
[1] = biological target: T1, Neutrophil elastase (Homo sapiens) (UniProt P08246)
T1 sequence (whole entry): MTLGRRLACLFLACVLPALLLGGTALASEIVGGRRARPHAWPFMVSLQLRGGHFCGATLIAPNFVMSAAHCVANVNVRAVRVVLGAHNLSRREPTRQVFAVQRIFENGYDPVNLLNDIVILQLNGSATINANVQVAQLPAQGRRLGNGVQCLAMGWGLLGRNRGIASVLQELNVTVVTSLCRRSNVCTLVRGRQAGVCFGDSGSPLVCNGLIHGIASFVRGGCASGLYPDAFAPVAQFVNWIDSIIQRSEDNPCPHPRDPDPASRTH
Description: (§1) Compound was evaluated for the inhibitory activity against Human leukocyte elastase (HLE)

[2] = biological target: T1, Neutrophil elastase (Homo sapiens); remark: listed apart in the source
Description: as §1

Neutrophil elastase [3] = biological target: T2, Neutrophil elastase (Homo sapiens, UniProt P08246); test: Observed binding affinity against Human leukocyte elastase (HLE)
T2 sequence (P08246 whole entry): T1 sequence (whole entry)

Neutrophil elastase [4] = biological target: T2, Neutrophil elastase; test: Ratio of Kreact to that of Kinact was determined on human leukocyte elastase(HLE)
[5] = biological target: T1, Neutrophil elastase (Homo sapiens); test: Compound was evaluated for the inhibitory activity against Human leukocyte elastase

Compound	Kreact [1]	K inact [2]	Ki (Neutrophil elastase [3])	Ki (Neutrophil elastase [4])	K inact [5]	Kreact [5]
CC(C)c1cccc2c1C(=O)N(COC(=O)c1c(Cl)cccc1Cl)S2(=O)=O	2.7e-05 s⁻¹	900000 M⁻¹ s⁻¹	–	–	–	–
CCc1cccc2c1C(=O)N(COC(=O)c1c(Cl)cccc1Cl)S2(=O)=O	–	–	0.0708 nM	–	–	–
CCC1CCCC2=C1C(=O)N(COC(=O)c1c(Cl)cccc1Cl)S2(=O)=O (stereo not drawn)	5.8e-05 s⁻¹	83000 M⁻¹ s⁻¹	0.708 nM	0.7 nM	–	–
CC1(C)CCCC2=C1C(=O)N(COC(=O)c1c(Cl)cccc1Cl)S2(=O)=O	1.8e-05 s⁻¹	18500 M⁻¹ s⁻¹	–	1 nM	–	–
O=C(OCN1C(=O)C2=C(C3CCC2C3)S1(=O)=O)c1c(Cl)cccc1Cl (stereo not drawn)	–	–	–	0.8 nM	–	–
CC(C)C1CCCC2=C1C(=O)N(COC(=O)c1c(Cl)cccc1Cl)S2(=O)=O (stereo not drawn)	1e-05 s⁻¹	10000 M⁻¹ s⁻¹	1 nM	1 nM	–	–

Further lines, results first:

Kreact [1]	K inact [2]	Ki (Neutrophil elastase [3])	Ki (Neutrophil elastase [4])	K inact [5]	Kreact [5]	Compound
–	–	–	5 nM	–	–	O=C(OCN1C(=O)C2=C(CCC2)S1(=O)=O)c1c(Cl)cccc1Cl
3.6e-05 s⁻¹	36000 M⁻¹ s⁻¹	1 nM	1 nM	–	–	CC1CCCC2=C1C(=O)N(COC(=O)c1c(Cl)cccc1Cl)S2(=O)=O (stereo not drawn)
–	–	–	100 nM	–	–	O=C(OCN1C(=O)C2=C(CCCCC2)S1(=O)=O)c1c(Cl)cccc1Cl
–	–	–	–	3300 M⁻¹ s⁻¹	5.9e-05 s⁻¹	O=C(OCN1C(=O)C2=C(CCCC2)S1(=O)=O)c1c(Cl)cccc1Cl
